Article PMC12395308 (ACS Central Science, 2025)
Values after ≈ are worked out from the molar mass of the structure shown.

Tests used:
[1] = test system: pyridoxal and pyridoxal-5′-phosphate; assay: Quantification of pyridoxal and pyridoxal-5-phosphate in mice liver; details: repeat-dose study; INH 90 mg/kg, 1d 117.5 mg/kg
[2] = In vivo plasma exposure after repetitive single oral dosing for 10 consecutive days; details: for eAUC20m–6h (AcHz): 10th dose, oral, molar equivalent of 10 mg/kg INH
[3] = In vivo plasma exposure after a single oral dose (RACE-PK); details: single oral dose 10 mg/kg
[4] = Bioconversion of prodrugs in plasma, ex vivo (human); details: 200 μg/mL
[5] = Aqueous solubility in Tris HCl buffer (pH 7.4), shake flask method; details: 37 °C, pH 7.4, aqueous buffer, thermodynamic from solid
[6] = Stomach homogenate conversion assay; assay type: in vitro ADME, mice; details: 50 μg/mL
[7] = Complete pharmacokinetic analysis after a single oral dose; details: for plasma level of AcHz formed in vivo: all time points 0.083–24 h
[8] = Comparative plasma exposure after a single oral dose at three incremental dose levels; details: for concentration at 2 h / concentration at 6 h: Balb/C, mouse, plasma, po; for plasma concentration of INH (mean): oral 1mg/Kg
[9] = Derivatization-based quantification of hydrazine in mice plasma using LC-MS; details: for plasma concentration of in vivo released Hz: post 24hrs of 6th dose, repetitive oral dosing for six days; for plasma level of released Hz: single oral dose (10 mg/kg INH or equivalent), all time points 0.083–24 h
[10] = Chemical stability in neat DMSO (UV spectrophotometer); details: post 24 h of incubation
[11] = Bioconversion of prodrugs in plasma, ex vivo (mice); details: 200 μg/mL
[12] = Comparative pharmacokinetic analysis after a single intravenous dose
[13] = Human liver microsomal stability analysis; details: for percentage of 1d/INH remaining after 2 h of incubation, human liver microsomes: 50 μM, 1 mg/mL microsomes, 1 mM NADPH
[14] = Aqueous stability in acidic and basic buffer (HPLC); details: post 24 h of incubation; for chemical stability, pH (7.6): percentage of parent remaining: basic buffer
[15] = Intestinal homogenate conversion assay; assay type: in vitro ADME, mice; details: 50 μg/mL
[16] = Mouse liver homogenate conversion assay; assay type: in vitro ADME
[17] = Lipophilicity (logD) by shake flask method
[18] = Balb/C, mouse, plasma, po, 10 mg/kg of INH (prodrugs at molar equivalent)
[19] = Balb/C, mouse, plasma, iv, 1 mg/kg

CC(C)OC(=O)NNC(=O)c1ccncc1.Cl [prodrug 1d]
liver tissue levels of pyridoxal and pyridoxal-5′-phosphate [1]: comparable | eAUC20m–6h (AcHz) [2]: BLQ ^d | feed intake per cage ([2]; day 0, cage of n=3): 11 g | feed intake per cage ([2]; day 1, cage of n=3): 11.5 g | feed intake per cage ([2]; day 2, cage of n=3): 10.5 g | feed intake per cage ([2]; day 3, cage of n=3): 10 g | feed intake per cage ([2]; day 4, cage of n=3): 11 g | feed intake per cage ([2]; day 5, cage of n=3): 14.5 g | feed intake per cage ([2]; day 6, cage of n=3): 12 g | feed intake per cage ([2]; day 7, cage of n=3): 12 g | feed intake per cage ([2]; day 8, cage of n=3): 13.5 g | feed intake per cage ([2]; day 9, cage of n=3): 12.5 g | feed intake per cage ([2]; day 10, cage of n=3): 12.5 g | plasma concentration of AcINH at 20 min [3]: BLQ | plasma eAUC20m–120m (AcINH) ([3]; n=3, 10 mg/kg): BLQ and below the limit of quantification and BLQ ^d | % of prodrug remaining at 20 h, human plasma ([4]; 37 °C, ex vivo): 40.1% | eAUC20m–20h in human plasma, prodrug ([4]; 20 h ex vivo incubation): 1196 ± 308 ng·h/mL | solubility at 24 h ([5]; Tris HCl buffer): 18.6 mg/mL | eAUC0–20h in stomach homogenate, prodrug ([6]; 20 h): 433,081 ng·h/mL | percentage of prodrug remaining after 20 h of incubation, stomach homogenate ([6]; ex vivo): 3% | concentration at 0.33 h [7, 18]: 18700 ng/mL | concentration at 1 h [7, 18]: 10400 ng/mL | concentration at 2 h [7, 18]: 4620 ng/mL | concentration at 4 h [7, 18]: 942 ng/mL | concentration at 6 h [7, 18]: 347 ng/mL | concentration at 24 h [7, 18]: 152 ng/mL | plasma concentration of released AcINH (mean) ([7]; single oral dose, 0.33 h): BLQ | plasma concentration of released AcINH (mean) ([7]; single oral dose, 1 h): BLQ | plasma concentration of released AcINH (mean) ([7]; single oral dose, 2 h): BLQ | plasma concentration of released AcINH (mean) ([7]; single oral dose, 4 h): BLQ | plasma concentration of released INA (mean) ([7]; single oral dose, 4 h): BLQ | plasma concentration of free INH (mean) ([7]; single oral dose, 6 h): BLQ | plasma concentration of released AcINH (mean) ([7]; single oral dose, 6 h): BLQ | plasma concentration of released INA (mean) ([7]; single oral dose, 6 h): BLQ | plasma concentration of free INH (mean) ([7]; single oral dose, 24 h): BLQ | plasma concentration of released AcINH (mean) ([7]; single oral dose, 24 h): BLQ | plasma concentration of released INA (mean) ([7]; single oral dose, 24 h): BLQ | AUC5m–24h, released AcINH ([7]; single oral dose, INH 10 mg/kg or molar equivalent): BLQ | Vd, unchanged prodrug ([7]; single oral dose, molar equivalent of 10 mg/kg INH): 1.121 ± 0.345 L/kg | plasma level of AcHz formed in vivo ([7]; single oral dose): BLQ | concentration at 2 h ([8]; 1 mg/kg): 332 ng/mL | concentration at 6 h ([8]; 1 mg/kg): 146 ng/mL | concentration at 2 h ([8]; 3 mg/kg): 578 ng/mL | concentration at 6 h ([8]; 3 mg/kg): 151 ng/mL | concentration at 2 h ([8]; 10 mg/kg): 2030 ng/mL | concentration at 6 h ([8]; 10 mg/kg): 217 ng/mL | eAUC20m–6h (unchanged 1d) ([8]; single oral dose 1 mg/kg): 2916 ± 1005 ng·h/mL | eAUC20m–6h (unchanged 1d) ([8]; single oral dose 3 mg/kg): 5799 ± 858 ng·h/mL | eAUC20m–6h (unchanged 1d) ([8]; single oral dose 10 mg/kg): 20,138 ± 2821 ng·h/mL | plasma concentration of in vivo released Hz [9]: BLQ | plasma level of released Hz [9]: BLQ | chemical stability, DMSO: percentage of parent remaining [10]: 100.0% | % of prodrug remaining at 20 h, mice plasma ([11]; 37 °C, ex vivo): 23.8% | eAUC20m–20h in mice plasma, prodrug ([11]; 20 h ex vivo incubation): 987 ± 154 ng·h/mL | AUC [12, 19]: 18 ± 1 ng·h/mL | Cmax [12, 19]: 90 ± 5 ng/mL | Tmax [12, 19]: 4.8 min | Vd [12, 19]: 21 L/kg | clearance [12, 19]: 1780 mL/min/kg | concentration at 0.33 h [12, 19]: 53.6 ng/mL | plasma concentration of released AcINH (mean) ([12]; single IV dose, 0.33 h): BLQ | plasma concentration of released INA (mean) ([12]; single IV dose, 0.33 h): BLQ | plasma concentration of released AcINH (mean) ([12]; single IV dose, 1 h): BLQ | plasma concentration of released INA (mean) ([12]; single IV dose, 1 h): BLQ | plasma concentration of unchanged 1d (mean) ([12]; single IV dose, 1 h): BLQ | plasma concentration of released AcINH (mean) ([12]; single IV dose, 2 h): BLQ | plasma concentration of released INA (mean) ([12]; single IV dose, 2 h): BLQ | plasma concentration of unchanged 1d (mean) ([12]; single IV dose, 2 h): BLQ | plasma concentration of released AcINH (mean) ([12]; single IV dose, 4 h): BLQ | plasma concentration of released INA (mean) ([12]; single IV dose, 4 h): BLQ | plasma concentration of unchanged 1d (mean) ([12]; single IV dose, 4 h): BLQ | plasma concentration of released AcINH (mean) ([12]; single IV dose, 6 h): BLQ | plasma concentration of released INA (mean) ([12]; single IV dose, 6 h): BLQ | plasma concentration of unchanged 1d (mean) ([12]; single IV dose, 6 h): BLQ | plasma concentration of released AcINH (mean) ([12]; single IV dose, 8 h): BLQ | plasma concentration of released INA (mean) ([12]; single IV dose, 8 h): BLQ | plasma concentration of unchanged 1d (mean) ([12]; single IV dose, 8 h): BLQ | plasma concentration of released AcINH (mean) ([12]; single IV dose, 24 h): BLQ | plasma concentration of released INA (mean) ([12]; single IV dose, 24 h): BLQ | plasma concentration of unchanged 1d (mean) ([12]; single IV dose, 24 h): BLQ | AUC5m–24h, released AcINH ([12]; single IV dose, INH 1 mg/kg or molar equivalent): no AcINH was observed and BLQ | percentage of 1d/INH remaining after 2 h of incubation, human liver microsomes [13]: 77% | eAUC0–120m of 1d, human liver microsomes ([13]; 2 h incubation): 80,176 ng·h/mL | chemical stability, pH (7.6): percentage of parent remaining [14]: 100.0% | eAUC0–20h in intestinal homogenate, prodrug ([15]; 20 h): 728,889 ng·h/mL | percentage of prodrug remaining after 20 h of incubation, intestine homogenate ([15]; ex vivo): 87% | percentage of 1d remaining after 2 h of incubation, mouse liver homogenate ([16]; 37 °C): 27% | eAUC5–120m of 1d, mouse liver homogenate ([16]; 2 h incubation): 261,525 ng·h/mL | logD [17]: 0.2

NNC(=O)c1ccncc1 [INH, Isoniazid, reference compound]
liver tissue levels of pyridoxal and pyridoxal-5′-phosphate [1]: comparable | eAUC20m–6h (AcHz) [2]: BLQ ^d | feed intake per cage ([2]; day 0, cage of n=3): 9 g | feed intake per cage ([2]; day 1, cage of n=3): 13 g | feed intake per cage ([2]; day 2, cage of n=3): 11 g | feed intake per cage ([2]; day 3, cage of n=3): 9 g | feed intake per cage ([2]; day 4, cage of n=3): 11.5 g | feed intake per cage ([2]; day 5, cage of n=3): 15.5 g | feed intake per cage ([2]; day 6, cage of n=3): 13.5 g | feed intake per cage ([2]; day 7, cage of n=3): 14 g | feed intake per cage ([2]; day 8, cage of n=3): 14 g | feed intake per cage ([2]; day 9, cage of n=3): 15 g | feed intake per cage ([2]; day 10, cage of n=3): 15 g | solubility at 24 h [5]: 610 mg/mL (≈ 4450 mM) | plasma concentration of released INA (mean) ([7]; single oral dose, 4 h): BLQ | plasma concentration of free INH (mean) ([7]; single oral dose, 6 h): BLQ | plasma concentration of released AcINH (mean) ([7]; single oral dose, 6 h): BLQ | plasma concentration of released INA (mean) ([7]; single oral dose, 6 h): BLQ | plasma concentration of free INH (mean) ([7]; single oral dose, 24 h): BLQ | plasma concentration of released AcINH (mean) ([7]; single oral dose, 24 h): BLQ | plasma concentration of released INA (mean) ([7]; single oral dose, 24 h): BLQ | plasma level of AcHz formed in vivo ([7]; single oral dose): BLQ | plasma concentration of INH (mean) ([8]; 2 h): BLQ | plasma concentration of INH (mean) ([8]; 6 h): BLQ | plasma concentration of in vivo released Hz [9]: BLQ | plasma level of released Hz [9]: BLQ | chemical stability, DMSO: percentage of parent remaining [10]: 100.0% | plasma concentration of released INA (mean) ([12]; single IV dose, 0.33 h): BLQ | plasma concentration of released INA (mean) ([12]; single IV dose, 1 h): BLQ | plasma concentration of released AcINH (mean) ([12]; single IV dose, 2 h): BLQ | plasma concentration of released INA (mean) ([12]; single IV dose, 2 h): BLQ | plasma concentration of released AcINH (mean) ([12]; single IV dose, 4 h): BLQ | plasma concentration of released INA (mean) ([12]; single IV dose, 4 h): BLQ | plasma concentration of released AcINH (mean) ([12]; single IV dose, 6 h): BLQ | plasma concentration of released INA (mean) ([12]; single IV dose, 6 h): BLQ | plasma concentration of released AcINH (mean) ([12]; single IV dose, 8 h): BLQ | plasma concentration of released INA (mean) ([12]; single IV dose, 8 h): BLQ | plasma concentration of released AcINH (mean) ([12]; single IV dose, 24 h): BLQ | plasma concentration of released INA (mean) ([12]; single IV dose, 24 h): BLQ | percentage of 1d/INH remaining after 2 h of incubation, human liver microsomes [13]: 66% | chemical stability, pH (3.0): percentage of parent remaining ([14]; acidic buffer): 100.0% | chemical stability, pH (7.6): percentage of parent remaining [14]: 100.0% | logD [17]: -0.8
